Experimental data reported in PMC4434572, “Identification of novel drugs to target dormant micrometastases” (BMC Cancer, 2015).
Like-named read-outs stand apart in the source and are kept apart here.

How the values were obtained:
mice = assay: Toxicity / maximum tolerated dose in mice; settings: for NOAEL dose, osmotic pump: Alzet #2004 osmotic pump, 4 weeks; for MTD / toxicity in mice: mice
4T1 parental cells = assay: EC50 on parental 4T1 cell line grown on plastic surface; type: cell-based, mouse
Description: Because cancer stem cells are highly resistant to conventional chemotherapy and are thought to initiate tumors, the activity of the DT series of drugs was also checked against cancer stem cells obtained from the 4T1 line. […] For comparison the EC50 values of DT310, DT320, and doxorubicin were determined in 4T1 parental cells plated on plastic. Because this assay targeting stem cells was performed in suspension culture, we also tested whether SISgel differentiated the stem cells. As indicated by the presence of pluripotency markers (Nanog, Sox2, Oct4), the cells retained their pluripotency markers on SISgel (Fig. 5). […] The 4T1 stem cells could not be tested on Matrigel or on plastic because they differentiate and are therefore no longer stem cells. 4T1 cancer stem cells were much more sensitive to the DT agents, particularly to DT320, than to conventional chemotherapeutic drugs.

[1] = test system: 4T1 stem cells (CD44v3highALDH1high 4T1 cells); assay: Tumor cell growth inhibition of sphere-derived cancer stem cells (CellTiter-Glo); type: cell-based, mouse; settings: for Fold change: stem cell EC50 vs parental EC50
Description: Sphere formation to further increase the fraction of cancer stem cells was induced by suspending CD44v3highALDH1high 4T1 cells in 1:1 Matrigel/basal medium in a total of volume of 100 μl. Samples (5 × 10^4 cells) were then plated around the rims of wells in a 12-well plate and allowed to solidify at 37 °C for 10 min before 1 ml basal medium (with B27 plus 20 ng/mL EGF, 10 ng/mL FGF and 4 μg/mL insulin) was added. Medium was replenished every 3-days. Ten days after plating, spheres (tight, spherical, nonadherent masses >40 μm in diameter) per well were counted, and at least 100 spheres per group were measured. The number of spheres containing CD44v3highALDH1high 4T1 cells in each well and expressed as sphere forming units (SFU) as described previously. The number of SFUs per well was counted in triplicate wells for each condition.
To recover CD44v3highALDH1high 4T1 cells from the spheres, Matrigel–containing wells were treated with 1 mg/ml Dispase solution (Gibco). Spheres were then digested with trypsin and 0.05 % EDTA. CD44v3highALDH1high cells dissociated from spheres were counted by hemacytometer and replated to generate spheres of next generation. Serial passage of individual spheres was regularly performed in order to verify self-renewal capability of cells associated the spheres. Measurement of growth for CD44v3highALDH1high cells (dissociated from spheres) was also performed by incubating these cells in serum-free RPMI-1640 medium for 3-weeks using MTT-based growth assay as described previously.
To analyze tumor cell growth properties, sphere-derived CD44v3highALDH1high 4T1 cells were incubated in basal medium (with B27 plus 20 ng/mL EGF, 10 ng/mL FGF and 4 μg/mL insulin). Medium was replenished every 3-days. Twenty-one days after plating, the number of cell growth was then counted under a microscope at low magnification. In some cases, these sphere-derived CD44v3highALDH1high 4T1 cells were also treated with DT compounds for 5 days or doxorubicin (range 1 μM to 1 mM) for 5 days at 37 °C. The CellTiter-Glo® Luminescent Cell Viability Assay (Promega, Madison, WI) was utilized to determine the number of metabolically active cells based on the quantification of adenosine triphosphate (ATP). The percentage of […] relative to untreated controls was plotted as a linear function of drug concentration. The 50 % inhibitory concentration (IC50) was identified as the concentration of drug required to achieve a 50 % growth inhibition relative to untreated controls.
A stem cell–enriched cell population was prepared as described previously by sorting for ALDH1 and CD44v3. The identification of aldehyde dehydrogenase1 (ALDH1) activity from tumor–derived 4T1 Luc2-GFP cells (PerkinElmer, Waltham, MA) was conducted using the ALDEFLUOR kit (StemCell Technologies, Durham, NC). Specifically, tumor cells were suspended in ALDEFLUOR assay buffer containing ALDH1 substrate (BAAA, […] per 1 × 10^6 cells) and incubated for 30 min at 37 °C. As a negative control, 4T1 cells were treated with a specific ALDH1 inhibitor, […] diethylaminobenzaldehyde (DEAB). Next, for labeling cell surface marker, tumor–derived 4T1 cells were suspended in 100 μl ALDEFLUOR buffer followed by incubating with 20 μl allophycocyanin (APC)-labeled anti-CD44v3 antibody (recognizing the v3-specific domain of CD44) or APC-labeled normal mouse IgG (as a control) (BD Bioscience, San Jose, CA) for 15 min at 4 °C. For FACS sorting, tumor cells were incubated in PBS buffer followed by FACS (BD FACS Aria llu, BD Bioscience, San Jose, CA) sorting using dual-wavelength analysis as described previously. The parental cell line contained 2 % CD44v3highALDH1high cells but the final sorted cells contained 18 % CD44v3highALDH1high cells, a 9-fold enrichment.

[2] = suspension culture, 5 days, read-out: EC50 4T1 stem cells in suspension culture

| Structure (SMILES) | NOAEL dose, osmotic pump (mice) [µg/h] | MTD (mice) [mg/kg] | toxicity in mice (mice) | EC50 (4T1 parental cells; plastic surface) [µM] | EC50 ([1]; grown on SISgel, read-out: EC50 4T1 stem cells grown on SISgel) [µM] | Fold change [1] | EC50 [1, 2] [µM] | EC50 (4T1 parental cells; Mus musculus, 4T1) [µM] | EC50 ([1]; Mus musculus, 4T1, 120 h, suspension culture, 5 days, read-out: EC50 4T1 stem cells in suspension culture) [µM] |
| --- | --- | --- | --- | --- | --- | --- | --- | --- | --- |
| O=S(=O)([O-])c1cc(O)c2c(O)c(N=Nc3cccc4ccccc34)c(S(=O)(=O)[O-])cc2c1.[Na+].[Na+] [DT320, 4,5-Dihydroxy-3-(1-naphthalenylazo)-2,7-naphthalenedisulfonic acid disodium salt] | 26.7 | 75 | very low toxicity | 19.7 | 71 | 2.5 | 50 |  |  |
| COc1cccc2c1C(=O)c1c(O)c3c(c(O)c1C2=O)C[C@@](O)(C(=O)CO)C[C@@H]3O[C@H]1C[C@H](N)[C@H](O)[C@H](C)O1 [Doxorubicin, reference compound] |  |  |  |  |  | 134.0 |  | 4.7 | 630 |
| O=S(=O)([O-])c1ccc2c(N=Nc3cccc4ccccc34)c(O)c(S(=O)(=O)[O-])cc2c1.[Na+].[Na+] [DT310, 4-(1-naphthalenylhydrazinylidene) -3-oxonaphthalene-2,7-disulfonic acid] | 23.4 | 65 | very low toxicity | 14.4 |  | 9.8 | 141 |  |  |
